Source: PMC3171603 (Bioorganic & medicinal chemistry letters, 2011)

What was measured:
[1] = Cytotoxicity: growth inhibition of uninfected TZM-bl cells; format: cell-based; conditions: human
[2] = tested on: HIV-1 NL4-3; assay: HIV-1 infectivity assay; format: cell-based; conditions: for anti-HIV activity: TZM-bl cells, statement in words

| Compound | CC50 [1] [µM] | EC50 ([2]; Human immunodeficiency virus 1, NL43, TZM-bl) [µM] | anti-HIV activity [2] |
| --- | --- | --- | --- |
| Cc1cc(=O)oc2c3c(ccc12)SC(C)(C)[C@H](OC(=O)[C@@]12CC[C@@](C)(C(=O)O1)C2(C)C)[C@@H]3OC(=O)[C@@]12CC[C@@](C)(C(=O)O1)C2(C)C [Compound 8a, 4-Methyl-1′-thia-DCK] | > 30.6 |  |  |
| CCc1cc(=O)c2ccc3c(c2o1)[C@@H](OC(=O)C12CCC(C)(C(=O)O1)C2(C)C)[C@@H](OC(=O)C12CCC(C)(C(=O)O1)C2(C)C)C(C)(C)O3 (some centres unmarked) [Compound 2-Ethyl-DCP, 2-ethyl-DCP, reference compound] | 14.3 | 0.12 |  |
| Cc1cc(=O)oc2c3c(ccc12)SC(C)(C)[C@@H](OC(=O)[C@@]12CC[C@@](C)(C(=O)O1)C2(C)C)[C@H]3OC(=O)[C@@]12CC[C@@](C)(C(=O)O1)C2(C)C [Compound 8b] |  |  | remarkably reduced or even completely abolished |
| CCc1cc(=O)c2ccc3c(c2o1)[C@H](OC(=O)C12CCC(C)(C(=O)O1)C2(C)C)[C@H](OC(=O)C12CCC(C)(C(=O)O1)C2(C)C)[C@@H](C)S3 (some centres unmarked) [Compound 6b] |  |  | remarkably reduced or even completely abolished |
